# Source: publication PMC3445516 (PLoS ONE, 2012)
# Where two headings read alike, the source gives them in different places.
# What was measured:
# [1] = target: T1, recombinant GST-tagged human protein kinase D1 (PKD1) (Homo sapiens, UniProt Q15139); assay: In vitro radiometric PKD1 kinase assay; type: biochemical; details: read-out: Inhibition of PKD1
# T1 construct: purchased Enzo Life sciences (Farmingdale, NY)
# T1 sequence (Q15139 1-912): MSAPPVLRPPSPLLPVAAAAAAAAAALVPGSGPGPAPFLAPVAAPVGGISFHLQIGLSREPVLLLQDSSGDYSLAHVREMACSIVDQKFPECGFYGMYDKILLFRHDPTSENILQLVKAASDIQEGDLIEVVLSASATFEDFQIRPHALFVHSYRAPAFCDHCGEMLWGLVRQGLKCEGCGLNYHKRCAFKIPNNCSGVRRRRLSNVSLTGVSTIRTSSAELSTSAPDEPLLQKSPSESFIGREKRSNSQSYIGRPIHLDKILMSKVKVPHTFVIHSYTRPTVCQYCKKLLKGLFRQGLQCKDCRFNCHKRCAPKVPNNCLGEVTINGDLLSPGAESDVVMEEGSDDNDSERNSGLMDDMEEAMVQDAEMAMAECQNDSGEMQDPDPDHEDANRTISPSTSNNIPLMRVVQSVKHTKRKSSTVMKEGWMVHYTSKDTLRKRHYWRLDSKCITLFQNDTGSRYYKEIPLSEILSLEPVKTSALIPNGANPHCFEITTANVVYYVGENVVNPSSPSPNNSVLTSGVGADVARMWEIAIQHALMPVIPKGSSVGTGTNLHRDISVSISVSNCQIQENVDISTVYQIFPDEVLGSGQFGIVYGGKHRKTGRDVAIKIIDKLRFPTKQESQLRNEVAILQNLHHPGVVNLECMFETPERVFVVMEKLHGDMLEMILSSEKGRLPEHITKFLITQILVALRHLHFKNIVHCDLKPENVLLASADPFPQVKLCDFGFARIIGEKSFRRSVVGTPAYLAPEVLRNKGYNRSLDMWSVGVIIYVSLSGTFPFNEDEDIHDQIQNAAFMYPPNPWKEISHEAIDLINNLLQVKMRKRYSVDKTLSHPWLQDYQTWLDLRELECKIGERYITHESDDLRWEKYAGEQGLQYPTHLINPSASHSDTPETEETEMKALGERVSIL
# Protocol: All compounds were given distinct UPCMLD (University of Pittsburgh Center for Chemical Methodologies and Library Development) IDs and were then assigned numerical IDs for convenient data display. Evaluation of each compound was carried out in triplicate at a single concentration (1 µM). Our previously described PKD1 inhibitor, kb-NB142-70, and DMSO (solvent alone) were used as positive and negative controls, respectively. Percent residual kinase activity was calculated based on that of the negative control (DMSO).
# Kinase active recombinant GST-tagged human protein kinase D1 (PKD1) was obtained from Enzo Life sciences (Farmingdale, NY). DMSO was purchased from Sigma. Recombinant PKCα, PKCδ and CAMKIIα were obtained from SignalChem (Richmond, BC, Canada). ATP was purchased from Fisher Scientific. HDAC5 substrate peptide was synthesized by Biobasic Canada Inc. (Markham, ON). Myelin basic protein 4–14 was purchased from AnaSpec Inc. (Fremont, CA). The targeted kinase inhibitor library was obtained from Hoffmann-La Roche, Inc.
# 1.2 µg of HDAC-5 was used as substrate in the reaction. Phosphorylation of HDAC5 was detected in a kinase reaction having 1 µCi [γ-^32P] […] The reaction was incubated at 30° for 10 minutes and 25 µL of the reaction was spotted on Whatman P81 filter paper. The filter paper was washed 3 times in 0.5% phosphoric acid, air dried and counted using Beckman LS6500 multipurpose scintillation counter. Percent PKD1 inhibition was graphed using GraphPad Prism software 5.0.
# [2] = target: T2, TYK2 (JH2 domain-pseudokinase) (Homo sapiens, UniProt P29597); assay: Ambit kinase profiling, competition binding; details: for % Competition: TYK2 (JH2 domain-pseudokinase), 10 µM
# T2 construct: TYK2 (JH2 domain-pseudokinase); purchased Ambit Biosciences (KINOMEscan)
# Protocol: (§1) Also included in the kinase profile are four isoforms of PKC (δ, ε, η, θ) and eight isoforms of CAMKs (CAMKIα, δ, γ; CAMKIIα, β, δ, γ; CAMK4).
# (§2) The global kinase profiling experiment was performed by Ambit Biosciences.
# EGFR = target: T3, EGFR (Homo sapiens, UniProt P00533); assay: Ambit kinase profiling, competition binding; details: for % Competition: 10 µM
# T3 construct: purchased Ambit Biosciences (KINOMEscan)
# Protocol: as §1, §2
# [3] = target: T4, EGFR(L747-E749del, A750P) (Homo sapiens, UniProt P00533, A750P/DEL747-749); assay: Ambit kinase profiling, competition binding; details: for % Competition: 10 µM
# T4 construct: purchased Ambit Biosciences (KINOMEscan)
# Protocol: as §1, §2
# [4] = target: T5, RPS6KA1(Kin.Dom.2-C-terminal) (Homo sapiens, UniProt Q15418); assay: Ambit kinase profiling, competition binding
# T5 construct: RPS6KA1(Kin.Dom.2-C-terminal); purchased Ambit Biosciences (KINOMEscan)
# Protocol: as §1, §2
# PCTK1 = target: T6, PCTK1 (Homo sapiens, UniProt Q00536); assay: Ambit kinase profiling, competition binding
# T6 construct: purchased Ambit Biosciences (KINOMEscan)
# Protocol: as §1, §2
# BTK = target: T7, BTK (Homo sapiens, UniProt Q06187); assay: Ambit kinase profiling, competition binding; details: for % Competition: 10 µM
# T7 construct: purchased Ambit Biosciences (KINOMEscan)
# Protocol: as §1, §2
# MEK4 = target: T8, MEK4 (Homo sapiens, UniProt P45985); assay: Ambit kinase profiling, competition binding
# T8 construct: purchased Ambit Biosciences (KINOMEscan)
# T8 sequence (P45985 1-399): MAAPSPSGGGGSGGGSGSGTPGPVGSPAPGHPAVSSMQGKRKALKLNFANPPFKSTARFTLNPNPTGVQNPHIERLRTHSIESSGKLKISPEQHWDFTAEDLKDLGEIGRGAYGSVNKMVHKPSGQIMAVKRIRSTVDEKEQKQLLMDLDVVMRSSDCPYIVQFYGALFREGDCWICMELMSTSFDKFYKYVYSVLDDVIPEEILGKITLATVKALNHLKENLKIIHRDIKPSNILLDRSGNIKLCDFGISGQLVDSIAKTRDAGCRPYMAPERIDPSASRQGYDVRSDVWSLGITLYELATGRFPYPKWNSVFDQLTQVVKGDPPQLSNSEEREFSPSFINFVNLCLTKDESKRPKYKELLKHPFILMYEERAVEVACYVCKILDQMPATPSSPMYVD
# Protocol: as §1, §2
# PKCδ = PKCδ (Homo sapiens, UniProt Q05655); assay: Ambit kinase profiling, competition binding; design: purchased Ambit Biosciences (KINOMEscan); details: for competition: PKC δ, 10 µM
# Protocol: as §1, §2
# [5] = design: method as in PMID 14561090; details: cited from earlier work
# p38α = p38α (Homo sapiens, UniProt Q16539); design: method as in PMID 14561090; details: read-out: in vitro IC50 for p38α; cited from earlier work
# p38α, sequence (Q16539 whole entry): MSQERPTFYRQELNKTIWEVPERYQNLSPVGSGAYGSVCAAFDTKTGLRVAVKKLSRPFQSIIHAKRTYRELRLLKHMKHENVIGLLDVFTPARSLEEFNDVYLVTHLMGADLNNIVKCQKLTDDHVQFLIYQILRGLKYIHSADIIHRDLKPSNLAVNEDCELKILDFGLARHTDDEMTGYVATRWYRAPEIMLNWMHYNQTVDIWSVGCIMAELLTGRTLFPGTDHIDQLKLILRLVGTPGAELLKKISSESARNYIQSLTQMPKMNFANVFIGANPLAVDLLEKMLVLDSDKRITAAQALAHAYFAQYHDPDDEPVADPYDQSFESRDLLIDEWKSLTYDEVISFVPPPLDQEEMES
# T5 sequence (Q15418 392-735 limits assumed): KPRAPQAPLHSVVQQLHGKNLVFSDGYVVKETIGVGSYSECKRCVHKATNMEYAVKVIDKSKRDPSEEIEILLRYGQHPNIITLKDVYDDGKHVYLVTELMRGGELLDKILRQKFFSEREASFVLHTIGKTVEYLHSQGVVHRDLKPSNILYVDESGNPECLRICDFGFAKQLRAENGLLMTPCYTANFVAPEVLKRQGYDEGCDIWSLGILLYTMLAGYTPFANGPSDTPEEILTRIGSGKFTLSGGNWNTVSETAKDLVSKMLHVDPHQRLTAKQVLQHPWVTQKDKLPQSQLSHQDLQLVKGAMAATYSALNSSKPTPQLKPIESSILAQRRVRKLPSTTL
# T2 sequence (P29597 556-888 limits assumed): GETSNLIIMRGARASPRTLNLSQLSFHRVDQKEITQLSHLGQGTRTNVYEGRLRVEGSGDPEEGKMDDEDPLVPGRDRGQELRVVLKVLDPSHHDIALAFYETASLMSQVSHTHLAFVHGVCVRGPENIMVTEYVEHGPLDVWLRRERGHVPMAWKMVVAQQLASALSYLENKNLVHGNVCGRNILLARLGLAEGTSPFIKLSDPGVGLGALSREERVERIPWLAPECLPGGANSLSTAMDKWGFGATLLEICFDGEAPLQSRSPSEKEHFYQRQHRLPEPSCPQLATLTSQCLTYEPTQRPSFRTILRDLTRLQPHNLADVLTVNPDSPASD
# T6 sequence (Q00536 whole entry): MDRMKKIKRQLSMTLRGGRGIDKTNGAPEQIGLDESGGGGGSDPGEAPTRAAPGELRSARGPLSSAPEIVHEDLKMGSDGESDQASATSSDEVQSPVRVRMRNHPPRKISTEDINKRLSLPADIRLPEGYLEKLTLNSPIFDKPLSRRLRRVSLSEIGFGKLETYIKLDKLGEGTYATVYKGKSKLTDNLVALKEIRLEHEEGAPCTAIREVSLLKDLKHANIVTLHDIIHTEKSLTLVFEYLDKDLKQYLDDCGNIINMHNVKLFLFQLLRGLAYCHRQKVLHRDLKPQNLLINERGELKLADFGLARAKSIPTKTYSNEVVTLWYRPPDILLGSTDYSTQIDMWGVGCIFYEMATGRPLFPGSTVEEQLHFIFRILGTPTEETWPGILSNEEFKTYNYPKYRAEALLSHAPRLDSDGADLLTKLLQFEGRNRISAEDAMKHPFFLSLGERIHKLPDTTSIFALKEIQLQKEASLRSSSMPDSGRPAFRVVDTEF
# T7 sequence (Q06187 whole entry): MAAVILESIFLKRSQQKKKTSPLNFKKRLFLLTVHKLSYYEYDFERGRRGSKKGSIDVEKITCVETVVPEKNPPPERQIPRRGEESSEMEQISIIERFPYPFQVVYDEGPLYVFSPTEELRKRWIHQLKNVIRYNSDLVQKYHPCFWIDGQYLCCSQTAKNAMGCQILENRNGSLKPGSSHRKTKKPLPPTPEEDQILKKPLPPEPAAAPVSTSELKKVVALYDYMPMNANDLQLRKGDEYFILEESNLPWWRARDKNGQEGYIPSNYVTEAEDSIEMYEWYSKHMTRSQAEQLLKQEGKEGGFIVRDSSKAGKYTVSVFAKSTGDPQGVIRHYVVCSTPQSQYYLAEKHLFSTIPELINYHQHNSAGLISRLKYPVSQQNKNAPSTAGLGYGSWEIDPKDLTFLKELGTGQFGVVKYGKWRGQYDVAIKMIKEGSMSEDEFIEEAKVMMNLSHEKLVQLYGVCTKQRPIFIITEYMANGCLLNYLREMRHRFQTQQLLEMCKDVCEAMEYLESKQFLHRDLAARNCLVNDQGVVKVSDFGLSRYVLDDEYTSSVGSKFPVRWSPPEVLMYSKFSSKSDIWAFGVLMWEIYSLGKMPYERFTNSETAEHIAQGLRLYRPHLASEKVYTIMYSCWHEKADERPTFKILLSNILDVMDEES
# PKCδ, sequence (Q05655 whole entry): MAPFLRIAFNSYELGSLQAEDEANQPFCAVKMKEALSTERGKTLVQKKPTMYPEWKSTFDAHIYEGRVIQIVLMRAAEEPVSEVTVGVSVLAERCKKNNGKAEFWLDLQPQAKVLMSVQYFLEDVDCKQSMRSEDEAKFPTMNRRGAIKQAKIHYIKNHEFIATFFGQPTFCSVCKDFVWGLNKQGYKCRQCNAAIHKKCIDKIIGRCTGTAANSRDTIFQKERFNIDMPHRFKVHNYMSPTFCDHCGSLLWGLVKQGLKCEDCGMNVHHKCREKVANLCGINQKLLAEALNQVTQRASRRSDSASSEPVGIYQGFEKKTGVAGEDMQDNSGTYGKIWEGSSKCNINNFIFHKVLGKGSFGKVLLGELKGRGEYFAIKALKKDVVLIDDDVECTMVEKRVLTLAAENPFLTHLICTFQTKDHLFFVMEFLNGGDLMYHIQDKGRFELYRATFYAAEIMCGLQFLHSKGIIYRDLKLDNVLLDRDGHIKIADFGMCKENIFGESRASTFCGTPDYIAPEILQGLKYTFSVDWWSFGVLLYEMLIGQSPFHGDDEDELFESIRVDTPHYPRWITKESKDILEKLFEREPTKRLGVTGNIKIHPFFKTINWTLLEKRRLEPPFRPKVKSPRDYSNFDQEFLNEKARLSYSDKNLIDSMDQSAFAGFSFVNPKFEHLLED
smiles,measurement,setting,value
Fc1ccc(-c2c(-c3ccncc3)[nH]c3nccnc23)cc1 [Compound 122],inhibition at 1 µM,"[1]; 1 µM, triplicate determinations",62%
same,% Competition,[2],78%
same,% Competition,EGFR,95%
same,% Competition,[3],98%
same,inhibition at 10 µM,"[4]; RPS6KA1(Kin.Dom.2-C-terminal), 10 µM, read-out: % Competition",92%
same,inhibition at 10 µM,"PCTK1; PCTK1, 10 µM, read-out: % Competition",100%
same,% Competition,BTK,91%
same,inhibition at 10 µM,"MEK4; MEK4, 10 µM, read-out: % Competition",87%
same,competition,PKCδ,< 50%
CC(O)CNc1cc(-c2[nH]c3cccnc3c2-c2ccc(F)cc2)ccn1 (stereo not shown) [Compound 140],inhibition at 1 µM,[1],80%
same,pharmacokinetic (PK) parameters,[5],favorable pharmacokinetic (PK) parameters
same,IC50,p38α,1 nM
same,% Competition,[2],92%
same,% Competition,EGFR,76%
same,% Competition,[3],90%
same,inhibition at 10 µM,[4]; read-out: % Competition,87%
same,inhibition at 10 µM,PCTK1; read-out: % Competition,< 50%
same,% Competition,BTK,<50%
same,inhibition at 10 µM,MEK4; read-out: % Competition,< 50%
same,competition,PKCδ,< 50%
Fc1ccc(-c2c(-c3ccncc3)[nH]c3nccnc23)cc1 [RO1155697-000-005],Percent Competition,"[2]; TYK2(JH2domain-pseudokinase), compound concentration 10 uM",78%
same,Percent Competition,EGFR; compound concentration 10 uM,95%
same,Percent Competition,[3]; compound concentration 10 uM,98%
same,inhibition at 10 µM,"[4]; RPS6KA1(Kin.Dom.2-C-terminal), compound concentration 10 uM, read-out: Percent Competition",92%
same,inhibition at 10 µM,"PCTK1; PCTK1, compound concentration 10 uM, read-out: Percent Competition",100%
same,Percent Competition,BTK; compound concentration 10 uM,91%
same,inhibition at 10 µM,"MEK4; MEK4, compound concentration 10 uM, read-out: Percent Competition",87%
same,inhibition at 10 µM,"PKCδ; PRKCD, compound concentration 10 uM, read-out: Percent Competition",< 50%
